Measurements from patent publication US11814367B2, “Inhibitors of glycogen synthase 1 (GYS1) and methods of use thereof” (Maze Therapeutics, Inc., priority 2021, dated 2023).

What was measured:
[1] = biological target: hGYS1 enzyme (recombinant hGYS1/GN1 protein) (Homo sapiens (Human), UniProt P13807); assay: GYS1 coupled enzyme assay (PK/LDH); assay type: biochemical; details: hGYS1/GN1 50 nM, UDP-Glucose 0.8 mM, G6P 1 mM; geometric mean of at least 2 runs
[2] = system: hGYS1 enzyme / glycogen synthesis in HeLa cells; assay: GYS1 cell based assay (glycogen synthesis, Glucose-glo); set-up: species or system human; details: Homo sapiens, HeLa, 24 h, 24 h incubation, 20 mM glucose, geometric mean of at least 2 runs
Procedure, shortened: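 HeLa cells starved 24 h in medium containing only 1× Glutamax were plated onto compound in medium with 20 mM glucose (1% DMSO final) for 24 h, 37 °C, 5% CO2. Acid lysates were Tris-quenched, glucoamylase-digested (pH 5.3, 1 h, 37 °C) and read by Glucose-glo luminescence. IC50 came from Hill fits, as geometric mean of ≥2 runs.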

[3] = biological target: hGYS2 enzyme (recombinant hGYS2/GN1 protein) (Homo sapiens (Human), UniProt P54840); assay: GYS2 coupled enzyme assay (PK/LDH); assay type: biochemical; details: geometric mean of at least 2 assay runs on separate days, read-out: Avg_IC50
Procedure, shortened: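 IC50 came from Hill fits of duplicate percent inhibition, based on control-normalized slopes of 340 nm NADH decline read each minute for 10 min. The reaction held recombinant hGYS2/GN1 (200 nM) with glycogen, UDP-glucose, G6P and PEP, plus PK/LDH coupling at pH 7.5 and 2.5% DMSO.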

Sequence of hGYS2 enzyme (recombinant hGYS2/GN1 protein) (P54840 whole entry): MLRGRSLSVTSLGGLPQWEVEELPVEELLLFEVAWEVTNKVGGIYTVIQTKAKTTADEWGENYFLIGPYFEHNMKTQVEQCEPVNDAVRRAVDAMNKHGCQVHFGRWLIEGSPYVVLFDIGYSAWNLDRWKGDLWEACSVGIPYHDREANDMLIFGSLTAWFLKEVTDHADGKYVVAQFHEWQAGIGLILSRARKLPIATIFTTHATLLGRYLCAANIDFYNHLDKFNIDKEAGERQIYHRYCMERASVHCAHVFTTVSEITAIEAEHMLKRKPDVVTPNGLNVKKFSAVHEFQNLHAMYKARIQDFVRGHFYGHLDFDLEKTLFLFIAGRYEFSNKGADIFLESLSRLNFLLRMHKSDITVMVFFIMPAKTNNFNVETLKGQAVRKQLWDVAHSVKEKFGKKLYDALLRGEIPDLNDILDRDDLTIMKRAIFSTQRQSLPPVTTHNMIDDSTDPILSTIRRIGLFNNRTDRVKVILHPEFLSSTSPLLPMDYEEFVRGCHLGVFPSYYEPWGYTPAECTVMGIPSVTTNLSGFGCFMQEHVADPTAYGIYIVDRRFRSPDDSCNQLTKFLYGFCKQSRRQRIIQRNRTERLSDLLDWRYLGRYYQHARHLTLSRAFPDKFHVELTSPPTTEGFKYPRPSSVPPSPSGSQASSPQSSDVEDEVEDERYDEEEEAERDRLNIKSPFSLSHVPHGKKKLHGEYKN
Sequence of hGYS2 enzyme (recombinant hGYS2/GN1 protein) (P46976 whole entry partner): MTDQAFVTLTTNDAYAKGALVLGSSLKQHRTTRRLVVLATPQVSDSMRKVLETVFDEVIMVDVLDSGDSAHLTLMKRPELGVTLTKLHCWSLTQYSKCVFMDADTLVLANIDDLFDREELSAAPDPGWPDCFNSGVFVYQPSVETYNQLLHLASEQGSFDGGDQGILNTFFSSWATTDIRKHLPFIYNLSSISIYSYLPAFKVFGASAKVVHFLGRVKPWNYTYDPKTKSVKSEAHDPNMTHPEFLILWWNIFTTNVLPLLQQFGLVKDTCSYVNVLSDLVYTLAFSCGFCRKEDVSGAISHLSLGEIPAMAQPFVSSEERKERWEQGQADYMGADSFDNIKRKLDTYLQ
Sequence of hGYS1 enzyme (recombinant hGYS1/GN1 protein) (P13807 whole entry): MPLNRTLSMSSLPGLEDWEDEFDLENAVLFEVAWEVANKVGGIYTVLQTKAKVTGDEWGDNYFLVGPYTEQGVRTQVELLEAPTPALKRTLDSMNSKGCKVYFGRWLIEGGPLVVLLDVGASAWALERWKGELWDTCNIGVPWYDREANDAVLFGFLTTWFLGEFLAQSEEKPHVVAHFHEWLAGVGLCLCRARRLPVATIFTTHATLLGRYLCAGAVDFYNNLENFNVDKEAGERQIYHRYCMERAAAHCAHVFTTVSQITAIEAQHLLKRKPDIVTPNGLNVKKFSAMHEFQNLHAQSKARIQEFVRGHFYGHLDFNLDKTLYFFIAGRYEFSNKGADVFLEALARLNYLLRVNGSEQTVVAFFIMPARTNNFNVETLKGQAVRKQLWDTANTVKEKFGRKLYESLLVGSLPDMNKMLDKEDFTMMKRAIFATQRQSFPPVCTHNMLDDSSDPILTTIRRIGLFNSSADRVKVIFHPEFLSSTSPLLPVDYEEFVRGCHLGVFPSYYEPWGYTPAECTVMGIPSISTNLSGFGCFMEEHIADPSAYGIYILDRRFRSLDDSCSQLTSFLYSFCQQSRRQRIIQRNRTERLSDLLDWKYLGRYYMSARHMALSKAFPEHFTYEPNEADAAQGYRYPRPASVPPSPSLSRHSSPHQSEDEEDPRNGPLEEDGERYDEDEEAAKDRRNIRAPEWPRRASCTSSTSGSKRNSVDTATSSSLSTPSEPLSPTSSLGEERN
Sequence of hGYS1 enzyme (recombinant hGYS1/GN1 protein) (P46976 whole entry partner): as the sequence (P46976 whole entry partner) above

| IC50 [1] [nM] | IC50 [2] [nM] | IC50 [3] [nM] | SMILES |
| --- | --- | --- | --- |
| 14 | 240 | > 100000 | Cc1nccc(NCC(=O)N2C[C@H](F)C[C@H]2C(=O)N[C@@H](c2ccccc2)c2ccc(C(C)C)cn2)n1 [Compound 269, (2S,4R)-4-fluoro-1-{2-[(2-methylpyrimidin-4-yl)amino]acetyl}-N-[(S)-phenyl[5-(propan-2-yl)pyridin-2-yl]methyl]pyrrolidine-2-carboxamide] |
| 36 | 870 | > 100000 | Cc1cnc(CC(=O)N2C[C@H](F)C[C@H]2C(=O)N[C@@H](c2ccccc2)c2ccc(C(C)C)cn2)o1 [Compound 271, (2S,4R)-4-fluoro-1-[2-(5-methyl-1,3-oxazol-2-yl)acetyl]-N-[(S)-phenyl[5-(propan-2-yl)pyridin-2-yl]methyl]pyrrolidine-2-carboxamide] |
| 54 | 710 | > 100000 | Cc1coc(CC(=O)N2C[C@H](F)C[C@H]2C(=O)N[C@@H](c2ccccc2)c2ccc(C(C)C)cn2)n1 [Compound 272] |
| 76 | 1050 | > 100000 | Cc1nn(CC(=O)N2C[C@H](F)C[C@H]2C(=O)N[C@@H](c2ccccc2)c2ccc(C(C)C)cn2)c(=O)o1 [Compound 275, (2S,4R)-4-fluoro-1-[2-(5-methyl-2-oxo-2,3-dihydro-1,3,4-oxadiazol-3-yl)acetyl]-N-N-[(S)-phenyl[5-(propan-2-yl)pyridin-2-yl]methyl]pyrrolidine-2-carboxamide] |
| 90 | 5190 | > 100000 | CC(C)c1ccc([C@@H](NC(=O)[C@@H]2C[C@@H](F)CN2C(=O)Cc2n[nH]c(=O)[nH]2)c2ccccc2)nc1 [Compound 284, (2S,4R)-4-fluoro-1-[2-(5-oxo-4,5-dihydro-1H-1,2,4-triazol-3-yl)acetyl]-N-[(S)-phenyl[5-(propan-2-yl)pyridin-2-yl]methyl]pyrrolidine-2-carboxamide] |
| 124 | 11800 | > 100000 | CC(C)c1ccc([C@@H](NC(=O)[C@@H]2C[C@@H](F)CN2C(=O)CCc2n[nH]c(=O)[nH]2)c2ccccc2)nc1 [Compound 287, (2S,4R)-4-fluoro-1-[3-(5-oxo-4,5-dihydro-1H-1,2,4-triazol-3-yl)propanoyl]-N-[(S)-phenyl[5-(propan-2-yl)pyridin-2-yl]methyl]pyrrolidine-2-carboxamide] |
| 38 | 660 | > 100000 | O=C(N[C@@H](c1ccccc1)c1ccc(C2CC2)c(F)n1)[C@@H]1C[C@@H](F)CN1C(=O)Cn1nnnc1C(F)F [Compound 293, (2S,4R)-N-((S)-(5-cyclopropl-6-fluoropyridin-2-yl)(phenyl)methyl)-1-(2-(5-(difluoromethyl)-1H-tetrazol-1-yl)acetyl)-4-fluoropyrrolidine-2-carboxamide] |
| 6 | 160 | > 100000 | O=C(N[C@@H](c1ccccc1)c1ccc(C2CC2)c(F)n1)[C@@H]1C[C@@H](F)CN1C(=O)Cn1cnc2ccccc21 [Compound 294, (2S,4R)-1-[2-(1H-1,3-benzodiazol-1-yl)acetyl]-N-[(S)-(5-cyclopropyl-6-fluoropyridin-2-yl)(phenyl)methyl]-4-fluoropyrrolidine-2-carboxamide] |
| 13 | 590 | > 100000 | Cc1cn(CC(=O)N2C[C@H](F)C[C@H]2C(=O)N[C@@H](c2ccccc2)c2ccc(C3CC3)c(F)n2)c(=O)[nH]c1=O [Compound 295, (2S,4R)-N-[(S)-(5-cyclopropyl-6-fluoropyridin-2-yl)(phenyl)methyl]-4-fluoro-1-[2-(5-methyl-2,4-dioxo-1,2,3,4-tetrahydropyrimidin-1-yl)acetyl]pyrrolidine-2-carboxamide] |
| 87 | 4440 | > 100000 | O=C(N[C@@H](c1ccccc1)c1ccc(C2CC2)c(F)n1)[C@@H]1C[C@@H](F)CN1C(=O)Cn1cnnc1 [Compound 296, (2S,4R)-N-[(S)-(5-cyclopropyl-6-fluoropyridin-2-yl)(phenyl)methyl]-4-fluoro-1-[2-(4H-1,2,4-triazol-4-yl)acetyl]pyrrolidine-2-carboxamide] |

Second part, the compound before the results:

| SMILES | IC50 [1] [nM] | IC50 [2] [nM] | IC50 [3] [nM] |
| --- | --- | --- | --- |
| CC(C)c1ccc([C@@H](NC(=O)[C@@H]2C[C@@H](F)CN2C(=O)Cc2[nH]nnc2C(F)(F)F)c2ccccc2)nc1 [Compound 268, (2S,4R)-4-fluoro-N-[(S)-phenyl[5-(propan-2-yl)pyridin-2-yl]methyl]-1-{2-[4-(trifluoromethyl)-1H-1,2,3-triazol-5-yl]acetyl}pyrrolidine-2-carboxamide] | 18 | 830 | > 100000 |
| CC(C)c1ccc([C@@H](NC(=O)[C@@H]2C[C@@H](F)CN2C(=O)Cc2ncco2)c2ccccc2)nc1 [Compound 270, (2S,4R)-4-fluoro-1-[2-(1,3-oxazol-2-yl)acetyl]-N-[(S)-phenyl[5-(propan-2-yl)pyridin-2-yl]methyl]pyrrolidine-2-carboxamide] | 96 | 1400 | > 100000 |
| CC(C)c1ccc([C@@H](NC(=O)[C@@H]2C[C@@H](F)CN2C(=O)[C@H](C)NC(=O)N(C)C)c2ccccc2)nc1 [Compound 273, (2S,4R)-1-[(2S)-2-[(dimethylcarbamoyl)amino]propanoyl]-4-fluoro-N-[(S)-phenyl[5-(propan-2-yl)pyridin-2-yl]methyl]pyrrolidine-2-carboxamide] | 149 | 1790 | > 100000 |
| CC(C)c1ccc([C@@H](NC(=O)[C@@H]2C[C@@H](F)CN2C(=O)[C@@H](C)NC(=O)N(C)C)c2ccccc2)nc1 [Compound 274, (2S,4R)-1-[(2R)-2-[(dimethylcarbamoyl)amino]propanoyl]-4-fluoro-N-[(S)-phenyl[5-(propan-2-yl)pyridin-2-yl]methyl]pyrrolidine-2-carboxamide] | 264 | 3230 | > 100000 |
| CC(C)c1ccc([C@@H](NC(=O)[C@@H]2C[C@@H](F)CN2C(=O)Cn2ncc(N3CCC3)n2)c2ccccc2)nc1 [Compound 276, (2S,4R)-1-{2-[4-(azetidin-1-yl)-2H-1,2,3-triazol-2-yl]acetyl}-4-fluoro-N-[(S)-phenyl[5-(propan-2-yl)pyridin-2-yl]methyl]pyrrolidine-2-carboxamide] | 20 | 400 | > 100000 |
| CC(C)c1ccc([C@@H](NC(=O)[C@@H]2C[C@@H](F)CN2C(=O)Cn2ncc(N3CC(F)(F)C3)n2)c2ccccc2)nc1 [Compound 277, (2S,4R)-1-{2-[4-(3,3-difluoroazetidin-1-yl)-2H-1,2,3-triazol-2-yl]acetyl}-4-fluoro-N-[(S)-phenyl[5-(propan-2-yl)pyridin-2-yl]methyl]pyrrolidine-2-carboxamide] | 31 | 650 | > 100000 |
| CCN(CC)c1cnn(CC(=O)N2C[C@H](F)C[C@H]2C(=O)N[C@@H](c2ccccc2)c2ccc(C(C)C)cn2)n1 [Compound 278, (2S,4R)-1-{2-[4-(diethylamino)-2H-1,2,3-triazol-2-yl]acety}-4-fluoro-N-N-[(S)-phenyl[5-(propan-2-yl)pyridin-2-yl]methyl]pyrrolidine-2-carboxamide] | 11 | 230 | > 100000 |
| CC(C)c1ccc([C@@H](NC(=O)[C@@H]2[C@H]3C[C@H]3CN2C(=O)Cc2cnn[nH]2)c2ccccc2)nc1 [Compound 279, (1S,2S,5R)-N-[(S)-phenyl[5-(propan-2-yl)pyridin-2-yl]methyl]-3-[2-(1H-1,2,3-triazol-5-yl)acetyl]-3-azabicyclo[3.1.0]hexane-2-carboxamide] | 234 | 2310 | > 100000 |
| CC(C)c1ccc([C@@H](NC(=O)[C@@H]2CC[C@H](C)N2C(=O)Cc2cnn[nH]2)c2ccccc2)nc1 [Compound 280, (2S,5S)-5-methyl-N-[(S)-phenyl[5-(propan-2-yl)pyridin-2-yl]methyl]-1-[2-(1H-1,2,3-triazol-5-yl)acetyl]pyrrolidine-2-carboxamide] | 149 | 1530 | > 100000 |
| CC(C)c1ccc([C@@H](NC(=O)[C@@H]2C[C@@H](F)CN2C(=O)CNC(=O)N2CCN(CC(F)(F)F)CC2)c2ccccc2)nc1 [Compound 281, N-{2-[(2S,4R)-4-fluoro-2-{[(S)-phenyl[5-(propan-2-yl)pyridin-2-yl]methyl]carbamoyl}pyrrolidin-1-yl]-2-oxoethyl}-4-(2,2,2-trifluoroethyl)piperazine-1-carboxamide] | 59 | 1560 | > 100000 |
| CC(C)c1ccc([C@@H](NC(=O)[C@@H]2C[C@@H](F)CN2C(=O)CNC(=O)N2CCN(CC3CC3)CC2)c2ccccc2)nc1 [Compound 282, 4-(cyclopropylmethyl)-N-{2-[(2S,4R)-4-fluoro-2-{[(S)-phenyl[5-(propan-2-yl)pyridin-2-yl]methyl]carbamoyl}pyrrolidin-1-yl]-2-oxoethyl}piperazine-1-carboxamide] | 49 | 4180 | > 100000 |
| CC(C)c1ccc([C@@H](NC(=O)[C@@H]2C[C@@H](F)CN2C(=O)CNC(=O)N2CCN(C)CC2)c2ccccc2)nc1 [Compound 283, N-{2-[(2S,4R)-4-fluoro-2-{[(S)-phenyl[5-(propan-2-yl)pyridin-2-yl]methyl]carbamoyl}pyrrolidin-1-yl]-2-oxoethyl}-4-methylpiperazine-1-carboxamide] | 58 | 2400 | > 100000 |
